The values that follow come from patent publication US11173144B2, “Adrenergic receptor modulating compounds and methods of using the same” (The Board of Trustees of the Leland Stanford Junior …, priority 2016, dated 2021).

Series [1] has as its system tMCAO rat model of stroke. In words: tMCAO model of stroke, Paw-Whisker test of sensorimotor function. It is filed as in vivo. The settings on record: 3 mg/kg then 0.3 mg/kg daily subcutaneous, 28 days. On the procedure:
The tMCAO is performed on animal under isoflurane inhalation anesthesia (4% for induction and 1.5-2.5% for maintenance) in airoxygen mixture ratio 3:1. Ventral neck area is shaved by electric razor and disinfected using betadine followed by 70% ethanol solution. Subsequently, a midline incision is made in the ventral neck area, sharp and blunt dissection techniques are used to isolate left common carotid artery (CCA) and the internal and external carotid arteries (ICA and ECA, respectively). The proximal CCA is ligated below the bifurcation using 3-0 braided silk suture allowing enough room for filament insertion in the area between the ligation and bifurcation. Subsequently, ECA is ligated at its origin dose to the CCA bifurcation, so that the occipital artery stays proximal to the ligature. A microvessel dip is placed on ICA temporarily to avoid excessive bleeding during filament insertion. In order to occlude the origin of middle cerebral artery (MCA), a monofilament with silicon coated tip (0.39 mm diameter, 5-6 mm long) is then inserted into the CCA, the microvessel dip removed following filament advancement into the ICA 20 mm from the bifurcation through small, horizontal incision. […] Sensorimotor function was measured by the Paw-Whisker test (vibrissae-evoked forelimb placing) once a week until 4 weeks post stroke. […]

The subject of another series is C57bl/6J mice. In words: Neurogenesis, doublecortin-immunoreactive neuroblast counts in dentate gyrus. The settings on record: 0.3 mg/kg subcutaneous daily from 3.5 to 6.0 months of age.
Another series concerns 5XFAD mice. In words: Chronic xamoterol in 5XFAD mouse model of Alzheimer's disease, cortex qRT-PCR of inflammation genes. The settings on record: 3 mg/kg/day by mini-osmotic pump, 2.5 months.
The next series addresses ADRB1 (Homo sapiens (Human), UniProt P08588). The series can be described thus: cAMP assay (homogenous time-resolved fluorescence) in HEK-293 cells stably expressing human recombinant ADRB1. Type of series: cell-based. The settings on record: Table 4. Here is the method:
Pharmacological effects of compounds at the cAMP pathway mediated by ADRB1 are evaluated by measuring cAMP production using the homogenous time-resolved fluorescence detection method with HEK-293 cells stably expressing human recombinant ADRB1. Briefly, cells are suspended in HBSS buffer completed with 20 mM HEPES (pH 7.4) and 500 μM IBMX (3-isobutyl-1-methylxanthine) and distributed at a density of 3×10^3 cells/well. […] The results are expressed as a percent of the maximum efficacy achieved with isoproterenol. Pharmacological effects of compounds at the cAMP pathway mediated by ADRB2 and ADRB3 are measured as described above using CHO cells stably expressing human recombinant ADRB2 and human SK-N-MC neurotumor cells endogenously expressing ADRB3, respectively.
After 30 minute incubation with compounds, the cells are lysed and the fluorescence donor (Europium-chelated-labeled cAMP tracer; Eu-cAMP tracer) and fluorescence acceptor (cAMP-specific monoclonal antibodies labeled with the ULight™ dye) are added. […] The results are expressed as a percent of the control response to 10 μM isoproterenol. For subtype selectivity determination, same procedure is performed using Chinese hamster ovary (CHO) cells stably expressing human β2-adrenergic receptors or SK-N-MC human neuroblastoma cell line expressing β3-adrenergic receptors.
ADRB1 EC50 from functional assay (nM)^a, Determined using the homogenous time-resolved fluorescence detection method with HEK-293 cells stably expressing human recombinant ADRB1. ADRB2 IC50 from binding assay(nM)^b, Determined using the Tag-lite Adrenoceptor Beta2 receptor ligand binding assay.

A short description of series [2]: Microsomal stability assay, mouse. The settings on record: 0.1 uM.
For series [3], the system named is panel of CNS relevant targets, including G-protein coupled receptor and transporters. The series can be described thus: Screen against a panel of CNS relevant targets (off-target affinity). Type of series: binding. An excerpt: From a drug development perspective, characterizing the off-target effects of lead compounds is an important issue, as interactions with off-target molecules may lead to undesirable side effects. Thus we screened xamoterol (S) and the key compound compound 43 against a panel of CNS relevant targets, including G-protein coupled receptor and transporters. […].

Chain of ADRB1 (P08588 whole entry): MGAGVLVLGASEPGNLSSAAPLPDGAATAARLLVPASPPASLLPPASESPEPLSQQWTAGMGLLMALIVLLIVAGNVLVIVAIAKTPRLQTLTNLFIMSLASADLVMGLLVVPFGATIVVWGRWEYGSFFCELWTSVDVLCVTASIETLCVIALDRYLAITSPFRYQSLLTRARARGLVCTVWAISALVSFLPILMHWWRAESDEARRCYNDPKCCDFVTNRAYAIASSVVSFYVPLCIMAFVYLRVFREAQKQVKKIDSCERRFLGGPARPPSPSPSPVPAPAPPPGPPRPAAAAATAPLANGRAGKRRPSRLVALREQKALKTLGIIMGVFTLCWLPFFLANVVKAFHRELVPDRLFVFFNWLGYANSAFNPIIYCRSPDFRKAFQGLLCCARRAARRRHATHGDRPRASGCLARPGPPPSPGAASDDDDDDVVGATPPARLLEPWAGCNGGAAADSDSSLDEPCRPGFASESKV

As to `O=C(NCCNCC(O)COc1ccc(O)cc1)N1CCOCC1` (stereo not shown) [Xamoterol, reference compound], the sensorimotor function entry in series [1] is listed as “improves sensorimotor function”. In the series on C57bl/6J mice, the “neurogenesis (neuroblast counts in dentate gyrus)” value was “increases neurogenesis”. In addition, in the series with 5XFAD mice, the “expression of inflammation genes in cortex” value was “attenuated elevated expression of Iba1, CD74, CD14 and TGFb”.

Turning to `COc1ccccc1OCCNC[C@H](O)COc1ccc(O)cc1` [Compound 43], at ADRB1 (HEK293, 0.5 h, percent efficacy compared to the maximum response achieved with isoproterenol, read-out: cAMP pathway % Iso max), the Emax is 83.3 ± 15.7%. On ADRB1 (read-out: cAMP pathway ADRB1 EC50), the EC50 lay within 10 to 100 nM. For the same compound, the “compound remaining after 60 minutes in mouse liver microsomes” value in series [2] came to 62.8%. In addition, the “affinity for opioid, histamine, and muscarinic acetylcholine receptors” value in series [3] was “nominal affinity”.
